Patent US20180066004A9, “MITOCHONDRIA-TARGETING PLATINUM(IV) PRODRUG” (priority 2014, published 2018)

What was measured:
[1] = tested on: cisplatin resistant A2780/CP70 cells; assay: XF24 MitoStress assay (OCR), A2780/CP70; format: cell-based, human; conditions: 10 μM with respect to Pt, 12 h; for ATP-linked respiration on addition of oligomycin / basal OCR levels versus control cells / stimulation of mitochondrial respiration with FCCP after oligomycin: A2780/CP70
Text: (§1) Mitochondrial Toxicity of T-NP. […] Many TPP-based small molecules were described to disrupt ΔΨm, uncouple OXPHOS, and inhibit mitochondrial respiration. Preclinical mitochondrial toxicology tests can have high positive predictive value. We examined Empty-T-NP, Empty-nontargeted-NPs (NT-NP), and DBCO-TPP induced changes in mitochondrial respiration of prostate cancer (PCa) PC3 cells and cisplatin resistant ovarian cancer A2780/CP70 cells as a measure of mitochondrial toxicity (FIG. 3B). The oxygen consumption rate (OCR) of cells is an important indicator of normal mitochondrial functions. Thus, OCR can be used as a parameter to study TPP-induced mitochondrial toxicity.
(§2) After 12 h, OCR was measured and the effects of metabolic modulators oligomycin, carbonyl cyanide 4-(trifluoromethoxy)phenylhydrazone (FCCP), antimycin A, and rotenone allowed determination of multiple parameters of mitochondrial function (FIG. 3B). […] Several parameters linked to mitochondrial respiration; spare respiratory capacity, coupling efficiency, basal respiration, ETC accelerator response, and ATP coupler response were calculated from the OCR (pMoles/min) vs. Time (min) traces in FIG. 3B.
(§3) Mitochondrial Bioenergetics. We next investigated basal respiration, coupling efficiency, and spare respiratory capacity in response to Platin-M and its NPs using a XF24 MitoStress assay kit (FIG. 5). To determine whether accumulation of Platin-M inside the mitochondrial matrix of PC3 or A2780/CP70 cells inhibited mitochondrial respiration, we measured oxygen consumption rates (OCRs) in these cells as a way of assessing OXPHOS. […] PC3 or A2780/CP70 cells were treated with Platin-M, cisplatin, T-Platin-M-NPs, NT-Platin-M-NPs for 12 h.
(§4) Mito-stress Test Analysis: Different parameters of respiration: basal respiration, coupling efficiency, and spare respiratory capacity were investigated by using Seahorse XF-24 cell Mito Stress Test Kit. Prior to the assay, XF sensor cartridges were hydrated. To each well of an XF utility plate, 1 mL of Seahorse Bioscience calibrant was added and the XF sensor cartridges were placed on top of the utility plate, and kept at 37° C. incubator without CO2 for a minimum of 12 h. PC3, A2780-CP70, SH-SY5Y, and H9C2 (FIG. S18) cells were cultured in XF24-well cell culture microplates (Seahorse Bioscience) at a density of 2.5×10^4 cells/well (except for H9C2, cell density of this cell line: 5×10^4 cells/well) (0.32 cm2) in 200 μL growth medium and then incubated for 24 h at 37° C. in 5% CO2 atmosphere. […] After 12 h, all but 50 μL of the culture medium was removed from each well and the cells were rinsed two times with 500 μL of XF stress test glycolysis optimization medium pre-warmed to 37° C. and finally 450 μL of glucose depleted optimization medium was added to each well and the plate was placed at 37° C. without CO2 for 1 h prior to assay. Different parameters of respiration were calculated by subtracting the average respiration rates before and after the addition of the electron transport inhibitors oligomycin (1.0 μM), trifluorocarbonylcyanide phenylhydrazone or FCCP (1.0 μM), an ionophore that is a mobile ion carrier, and a mixture of antimycin-A (1.0 μM) which is a complex III inhibitor and rotenone (1.0 μM), a mitochondrial inhibitor that prevents the transfer of electrons from the Fe-S center in Complex I to ubiquinone. The parameters calculated included: basal respiration (baseline respiration minus antimycin-A post injection respiration), ATP turnover (baseline respiration minus oligomycin post injection respiration), maximal respiratory capacity (FCCP stimulated respiration minus antimycin-A post injection respiration) and reserve respiratory capacity (FCCP stimulated respiration minus baseline respiration). Test articles on each well had four replicates (data not shown).

[2] = tested on: human mesenchymal stem cells (hMSCs)
Protocol: (§5) PC3 cells (2000 cells/well), A2780/CP70 cells (2000 cells/well), SHSY-5Y (2000 cells/well), and MSC (2000 cells/well) were plated on a 96 well plate and allowed to grow overnight. The media was changed and increasing concentrations of each formulation was added. […] Control values were set at 0% cytotoxicity or 100% cell viability.

nDNA = assay: nDNA-Pt adduct quantification; format: cell-based, human; conditions: treated PC3 cells, 12 h
Protocol: (§6) This might be due to the fact that for T-NP system, Platin-M needs to be released from the NPs prior to reduction to cisplatin and subsequent mtDNA interaction and all Platin-M might not have released from the NPs during the course of this experiment, mtDNA isolation was carried out after 12 h which corresponds to only ˜50% of Platin-M will be released from T-NPs (FIG. 4B).
(§7) mtDNA-Pt and nDNA-Pt Adduct Quantification: The mitochondria and nuclei were isolated according to protocol mentioned before. These fractions were further fractionated in order to isolate mitochondrial and genomic DNA, respectively. For mitochondrial DNA (mtDNA), the freshly isolated mitochondria were re-suspended in 35 μL of mitochondrial lysis buffer. To this, 5 μL of the enzyme mix was added. This was incubated at 50° C. in water bath until the solution turned clear (˜1 h). To this, 100 μL of absolute ethanol was added and the resulting solution was incubated for 10 min at −20° C. […] The resulting solution was quantified for the amount and purity of DNA by UV-Vis spectroscopy (260/280 nm) and the amount of Pt by ICP-MS. […] Reprecipitation with 70% ethanol in nanopure H2O was performed until the ratio of the absorbances at 260 and 280 nm was […]. […] The resulting solution was quantified for the amount of DNA by UV-Vis spectroscopy (260/280 nm) and the amount of Pt by ICP-MS.

PCa PC3 cell line = assay: MTT cytotoxicity assay, PC3; format: cell-based, human; conditions: free drugs 72 h, NPs media changed after 12 h plus 60 h
Protocol: (§8) In vitro cytotoxicity of Platin-M, T-Platin-M, and NT-Platin-M was assessed by the 3-(4,5-dimethylthiazol-2-yl)-2,5-diphenyltetrazolium bromide or MTT assay on PCa PC3 cell line, human neuroblastoma SH-SY5Y cell line, and cisplatin resistant A2780/CP70 ovarian cancer cell line (Table 1). The rationale behind the use of androgen independent PC3 cell line was the inherent resistance of these cells to cisplatin therapy due to enhanced repair of Pt-nDNA adducts by the NER, poor targeting, and androgen-independent PCa with reduced normal mtDNA acquire a more progressive phenotype by inducing mutations to nDNA.
as §5

PC3 cells = assay: XF24 MitoStress assay (OCR), PC3; format: cell-based, human; conditions: 10 μM with respect to Pt, 12 h
Text: as §1, §2, §3, §4

[3] = tested on: human neuroblastoma SH-SY5Y cell line; assay: MTT cytotoxicity assay, SH-SY5Y; format: cell-based; conditions: free drugs 72 h, NPs media changed after 12 h plus 60 h
Protocol: as §8, §5

[4] = Electrochemistry of Platin-M (redox potential); format: physicochemical; conditions: 1 mM in 20% DMF-PBS, 0.1 M KCl, 25° C.
Text: We recently developed a cycloaddition approach to introduce numerous functionalities on to Pt(IV) with high efficiency by keeping in mind that copper(I) based click chemistry can also cause reduction of Pt(IV). A TPP moiety was introduced on dibenzocyclooctyne (DBCO) derivative to result DBCO-TPP (FIG. 2, FIGS. S1-S4). A strain-promoted alkyne-azide cycloaddition (SPAAC) reaction between an azide-Pt(IV) precursor Platin-Az (Pathak, R. K., et al. Chem Eur J DOI: 10.1002/chem.201402573) recently developed by us and DBCO-TPP resulted Platin-M with high efficiency (FIG. 2). The prodrug Platin-M was characterized using microanalysis and spectroscopic techniques (FIGS. S5-S10). Feasible cellular reduction of Pt(IV) prodrug is required to release active cisplatin.
Electrochemistry of Platin-M: Electrochemical measurements were made at 25° C. on an analytical system model CHI 920c potentiostat from CH Instruments, Inc. (Austin, Tex.). A conventional three-electrode set-up comprising a glassy carbon working electrode, platinum wire auxiliary electrode, and an Ag/AgCl (3M KCl) reference electrode was used for electrochemical measurements. The electrochemical data were uncorrected for junction potentials. KCl was used as a supporting electrolyte. Platin-M (1 mM) solutions were prepared in 20% DMF-phosphate buffered saline (PBS) of pH 6.0 and 7.4 with 0.1 M KCl and voltammograms were recorded at different scan rates (data not shown).

[5] = Platin-M ability to form micelles (nanoprecipitation, DLS); format: physicochemical; conditions: DMF solution of Platin-M into water
Text: Morphology of T-Platin-M and NT-Platin-M-NPs was investigated using transmission electron microscopy (TEM) (FIG. 4A). […] Percent loading of Platin-M varied between 6 to 27% based on the percent feed with respect to polymer feed (FIG. 4A, Tables S1 and S2). Given the amphiphilic character of Platin-M with two cationic TPP head groups and lipophilic DBCO moieties, we questioned whether the high loading of Platin-M is due to formation of self-micelles.
Determination of Platin-M Ability to Form Micelles: Platin-M was dissolved in DMF to a final concentration of 1.5 mg/mL. This solution was added drop wise slowly into vigorously stirring nanopure water (10 mL) and stirred at room temperature for 3 h. This solution was then filtered and washed through Amicon filters with a MW cutoff of 100 kDa 3 times in order to ensure the removal of all residual organic solvent. Finally, the NPs were resuspended in nanopure water (1 mL) and filtered through a 0.2 μm filter. The resulting suspension was characterized by DLS.

mtDNA = assay: mtDNA-Pt adduct quantification; format: cell-based, human; conditions: treated PC3 cells
Protocol: as §6, §7

With `N.N.[Cl][Pt][Cl]` [Cisplatin, Cisdiamminedichloridoplatinum(II), reference compound] the “ATP-linked respiration on addition of oligomycin” value (“ATP-linked respiration” for short) [1] was “attenuated”, the “basal OCR levels versus control cells” value [1] was “did not show any changes” and the “stimulation of mitochondrial respiration with FCCP after oligomycin” value (“stimulation of mitochondrial respiration” below) [1] was “comparable”. For the same compound, the IC50 ([2]; hMSC, MTT, free drugs 72 h, NPs media changed after 12 h plus 60 h) was 16.4 ± 0.5 µM, the Pt-nDNA adduct formation (nDNA) was “much higher than the level of cisplatin adducts in mtDNA” and the IC50 (PCa PC3 cell line) was 13.1 ± 0.1 µM. The “ATP-linked respiration” value (PC3 cells) was “attenuated”, the “basal OCR levels versus control cells” value (PC3 cells) was “did not show any changes” and the “stimulation of mitochondrial respiration” value (PC3 cells) was “comparable”. For the same compound, the IC50 [3] was 19 µM.
In the case of `[NH2][Pt]([NH2])([Cl])([Cl])([O]C(=O)CCCCCn1nnc2c1-c1ccccc1CN(C(=O)CCNC(=O)CCCCC[P+](c1ccccc1)(c1ccccc1)c1ccccc1)c1ccccc1-2)[O]C(=O)CCCCC[n+]1n[nH]c2c1-c1ccccc1CN(C(=O)CCNC(=O)CCCCC[P+](c1ccccc1)(c1ccccc1)c1ccccc1)c1ccccc1-2` [Platin-M], the “inhibition of mitochondrial respiration in A2780/CP70 cells compared to PC3 cells” value [1] is reported as “to a greater extent”, the “ATP-linked respiration” value [1] is reported as “less reduction” and the “basal OCR levels versus control cells” value [1] is reported as “less than control cells”. For the same compound, the “stimulation of mitochondrial respiration” value [1] was “no enhancement in OCR levels”, the “toxicity in hMSCs less than in the resistant cells” value ([2]; human, 72 h) was about 3 times and the “Redox potential vs. Ag/AgCl” value ([4]; pH 6.0) was −0.369 V. The “Redox potential vs. NHE” value ([4]; pH 6.0) was −0.269, the “Redox potential vs. Ag/AgCl” value ([4]; pH 7.4) was −0.376 V and the “Redox potential vs. NHE” value ([4]; pH 7.4) was −0.275. The “PDI of particles from nanoprecipitation without polymer” value [5] was 0.799, the “Size of particles from nanoprecipitation without polymer” value [5] was 941.6±589.5 nm and the “Zeta Potential of particles from nanoprecipitation without polymer” value [5] was −5.38±1.66 mV. The “ATP-linked respiration” value (PC3 cells) was “less reduction”, the “basal OCR levels versus control cells” value (PC3 cells) was “less than control cells” and the “stimulation of mitochondrial respiration” value (PC3 cells) was “no enhancement in OCR levels”. The “mtDNA adduct compared to T-Platin-M-NP system” value (mtDNA; 12 h) was “marginally higher” and the Pt-mtDNA adduct formation (mtDNA; mtDNA isolated after 12 h) was “exhibited binding with mtDNA”.
